Laboratory results published in patent US20140066367A1, “SUBCUTANEOUS DELIVERY OF A LONG-ACTING NATRIURETIC PEPTIDE” (Mayo Foundation for Medical Education and Research, priority 2012, published 2014).

Key:
[1] = Plasma ANP immunoreactivity and pharmacokinetics after subcutaneous administration to conscious canines; assay type: in vivo, canine
Procedure: (§1) Studies were performed in accordance with the Animal Welfare Act and with approval of the Mayo Clinic Institutional Animal Care and Use Committee. A randomized crossover study was designed in which equimolar (2.225 nmol/kg) SQ M-ANP and SQ ANP were administered to conscious healthy adult canines (n=5) at 2-week intervals. Vehicle (SQ 0.9% normal saline) was administered to 3 canines serving as a control group. At least 7 days prior to the above studies, an arterial port was placed in the femoral artery as previously described (Cataliotti et al. (2008) Circulation, 118:1729-1736). After recovery from arterial port placement, canines were fed a fixed sodium diet of 100 mEq/d with ad libitum access to water for 5 days before initiation of studies. During this time, canines were acclimatized to standing calm in a sling. On the day of the experiment, the dogs were fasted and placed in a sling in a quiet room. Thirty minutes before the beginning of the experiment, the femoral artery port was accessed for continuous BP and heart rate assessment (iWorx, Dover, N.H.). After 30 minutes of acclimatization, the study protocol was started. Subcutaneous M-ANP, ANP or vehicle was administered at time 0 minutes. At time −15, 0, 5, 10, 15, 30, 45, 60, 75, 90, 120, 150, 180, 210, 240, 270, and 300 minutes, mean arterial pressure (MAP) and heart rate samples were obtained over a period of 1 minute. […]
(§2) Blood samples were collected in chilled EDTA tubes, immediately placed on ice, and centrifuged at 4° C. […] After extraction, plasma ANP immunoreactivity (Phoenix Pharmaceuticals, Burlingame, Calif.) was assessed by radioimmunoassay as previously described (Burnett et al. (1986) Science, 231:1145-1147). […] Plasma cGMP (PerkinElmer, Waltham, Mass.) was assessed by radioimmunoassay (Steiner et al., supra).
(§3) Pharmacokinetic profile of M-ANP compared to ANP was determined using PK Solutions software (Summit PK, Montrose, Colo.). Specific parameters that were determined included plasma half-life, maximum concentration (Cmax) and area under the curve (AUC).

cGMP = assay: Plasma cGMP after subcutaneous administration to conscious canines; assay type: in vivo, canine
Procedure: as §1, §2, §3

[2] = infusion of a low dose, normal dogs; cited from earlier work
[3] = Mean arterial pressure and heart rate after subcutaneous administration to conscious canines; assay type: in vivo, canine; settings: SQ
Procedure: as §1

[4] = plasma cGMP, subcutaneous, equimolar 2.225 nmol/kg, conscious canines

CC[C@H](C)[C@@H]1NC(=O)[C@H](CCCNC(=N)N)NC(=O)[C@H](CC(=O)O)NC(=O)[C@H](CCSC)NC(=O)[C@H](CCCNC(=N)N)NC(=O)CNC(=O)CNC(=O)[C@H](Cc2ccccc2)NC(=O)[C@@H](NC(=O)[C@H](CO)NC(=O)[C@H](CO)NC(=O)[C@H](CCCNC(=N)N)NC(=O)[C@H](CCCNC(=N)N)NC(=O)[C@H](CC(C)C)NC(=O)[C@@H](N)CO)CSSC[C@@H](C(=O)N[C@@H](CC(N)=O)C(=O)N[C@@H](CO)C(=O)N[C@@H](Cc2ccccc2)C(=O)N[C@@H](CCCNC(=N)N)C(=O)N[C@@H](Cc2ccc(O)cc2)C(=O)O)NC(=O)CNC(=O)[C@H](CC(C)C)NC(=O)CNC(=O)[C@H](CO)NC(=O)[C@H](CCC(N)=O)NC(=O)[C@H](C)NC(=O)CNC1=O [ANP]
time ANP immunoreactivity remained significantly elevated ([1]; SQ, canines): 45 min | time of peak ANP immunoreactivity after administration ([1]; SQ, canines): 15 min | ANPi AUC ([1]; subcutaneous, equimolar 2.225 nmol/kg, conscious canines): 10.8 ± 2.4 pmol·min/mL | duration of sustained cGMP activation (cGMP; SQ, canines): 60 min | cGMP AUC (cGMP; [4]): 676 ± 211 pmol·min/mL | cGMP Cmax (cGMP; [4]): 14.7 ± 1.9 pmol/mL | change in glomerular filtration rate (GFR) or MAP [2]: No change | effect on MAP [3]: no significant reduction in MAP
